The test system of experiment [1] is HL-60 (human promyelocytic) cells. Nature of the experiment: HL-60 cell proliferation assay of quassinoids, [3H]thymidine incorporation. The format is cell-based. The note with it: for IC50: Homo sapiens, 4-day incubation, [3H]thymidine incorporation, read-out: inhibition of proliferation (IC50); for selectivity index: ratio of cytotoxic IC50 over antiproliferative IC50. Here is the method:
Induction of differentiation was determined by the ability of treated cells to produce superoxide anions (nitroblue tetrazolium (NBT)-reduction), a functional marker of mature macrophages or granulocytes. Proliferation capacity is equivalent to cell growth and was measured by incorporation of [3H]thymidine into DNA over a period of 18 h, and cytotoxic activity was evaluated by the loss of membrane integrity as shown by trypan blue exclusion. […] Although members of the brusatol and glaucarubolone series were active, when comparing members of both series that varied only in the positioning of the epoxymethano bridge, great differences were noted, as shown with yadianzolide C (5) and glaucarubolone (24), and analogues 4 (brusatol series) and 32 (glaucarubolone series).
HL-60 (human promyelocytic) cells were tested using a 4-day incubation protocol. In brief, cells in log phase (approximately 10^6 cells/mL) were diluted to […] and preincubated overnight (18 h) in 24-well plates to allow cell-growth recovery. Then, samples dissolved in DMSO were added, keeping the final DMSO concentration at 0.1% (v/v). Control cultures were treated with the same concentration of DMSO. After 4 days of incubation, the cells were analyzed to determine the percentage of cells undergoing maturation as determined by NBT reduction. Concomitantly, the effect on viability and proliferation of HL-60 cells was determined. In each experiment, 1α, 25-dihydroxyvitamin D3 (EC50=0.01 μM) and brusatol (EC50=0.07 μM) were used as reference controls. EC50 and IC50 values were calculated using 5-7 test concentrations (in duplicate), and consistent results were obtained, indicating the data reported for the related quassinoids are reliable.
(3) Cell Proliferation Assay. […] Cells were then collected on glass fiber filters (90×120 mm; Wallac, Turku, Finland) using a TOMTEC Harvester 96®.

In another experiment the test system is c-Myc oncoprotein, HL-60. Kind of experiment: c-Myc oncoprotein expression, western blotting. The format is cell-based, human. Here is the method: The expression of c-Myc was assessed by immunoblots as previously described. In brief, cells (10^6) were treated and harvested at various time intervals, and whole-cell pellets were lysed with detergent lysis buffer (1 ml/10^7 cells, 50 mM Tris-HCl buffer, pH 8.0, 150 mM NaCl, 1 mM DTT, 0.5 mM EDTA, 1% Nonidet® P40, 0.5% sodium deoxycholate, 0.1% sodium dodecylsulfate, 100 μg/ml phenylmethylsulfonyl fluoride, 1 μg/ml aprotinin, 2 μg/ml leupeptin and 100 μM sodium vanadate) to obtain protein lysates. Protein concentrations were quantified using a bicinchoninic acid kit. Since c-Myc is a labile protein, cell lysates were not frozen, but stored at 4° C., until all protein lysates were prepared for a particular cell line, and then western blots were performed immediately. Total protein ([…]) was separated by 10% SDS-PAGE, electroblotted to PVDF membranes, and blocked overnight with 5% nonfat dry milk. The membrane was incubated with a solution of the primary antibody (2.5 μg/ml), prepared in 1% blocking solution, for 2 h at room temperature, washed three-times for 15 min with PBS-T (PBS with 0.1%, v/v, Tween 20), and incubated with a 1:2500 dilution of horseradish peroxidase-conjugated secondary antibody for 30 min at 37° C. Blots were again washed three-times for 10 min each in PBS-T and developed by enhanced chemiluminescence (Amersham). Membranes were exposed to Kodak Biomax film and the resulting film was analyzed using Kodak 1D Image Analysis software. Membranes were then stripped and reprobed for the quantification of bactin.
Cells were treated with solvent (0.1% v/v DMSO, control), brusatol (25 ng/ml) or bruceantin (10 ng/ml) for 4 or 24 h, then analyzed by western blotting. Membranes were probed for c-Myc, and then stripped and probed for β-actin as an internal control.
Cells were treated with brusatol (25 ng/ml) or bruceantin (10 ng/ml) for 4 or 24 h, and then analyzed for c-Myc and β-actin expression using western blotting techniques. Results are expressed as percentage of c-Myc oncoprotein of control (0.1%, v/v, DMSO treated cells) values. Results were normalized relative to β-actin.

The source of these data is patent publication US20020193425A1, “Cancer chemopreventative compounds and compositions and methods of treating cancers” (priority 2001, published 2002).

In the case of `COC(=O)[C@@]12OC[C@]34[C@H]([C@@H](O)[C@@H]1O)[C@@]1(C)CC(=O)C(O)=C(C)[C@@H]1C[C@H]3OC(=O)[C@H](OC(=O)C=C(C)C)[C@@H]24` [compound 1, brusatol], in experiment [1], the IC50 came out at 70 ± 7 nM and the selectivity index came out at 2.5 ± 0.3. Moreover, the “decrease of c-Myc protein levels” value in the experiment with c-Myc oncoprotein, HL-60 (4 h treatment) is reported as 100%. The “c-Myc oncoprotein, percentage of control” value in the experiment on c-Myc oncoprotein, HL-60 (Brusatol (25 ng/ml), 4 h) amounted to 0%. Moreover, in the experiment on c-Myc oncoprotein, HL-60 (Brusatol (25 ng/ml), 24 h), the “c-Myc oncoprotein, percentage of control” value came out at 17%.

Regarding `COC(=O)[C@@]12OC[C@]34[C@H]([C@@H](O)[C@@H]1O)[C@@]1(C)CC(=O)C(O)=C(C)[C@@H]1C[C@H]3OC(=O)[C@H](OC(=O)/C=C(\C)C(C)C)[C@@H]24` [compound 2, bruceantin], in experiment [1], the IC50 turned out to be 40 ± 3 nM. Also, the selectivity index in experiment [1] is 1.0 ± 0.2. Moreover, the “c-Myc oncoprotein, percentage of control” value is recorded as 3% with c-Myc oncoprotein, HL-60 (Bruceantin (10 ng/ml), 4 h) and 57% with c-Myc oncoprotein, HL-60 (Bruceantin (10 ng/ml), 24 h).
